Assay results published in the NIST ThermoML archive (doi:10.1016/j.jct.2012.05.003).

Assay: molar heat capacity at saturation pressure
Details: Vacuum adiabatic calorimetry

O=C1c2ccccc2-c2ccccc21 [9(9H)-fluorenone]
molar heat capacity [J/K/mol]
Details | Crystal | Liquid
4.566 K | 0.46 | –
5 K | 0.6 | –
5.528 K | 0.77 | –
6.434 K | 1.22 | –
7.474 K | 1.88 | –
8.581 K | 2.71 | –
9.685 K | 3.71 | –
10 K | 4.02 | –
10.85 K | 4.87 | –
12.11 K | 6.26 | –
13.44 K | 7.86 | –
14.97 K | 9.678 | –
16.65 K | 11.82 | –
18.49 K | 14.15 | –
20 K | 16.01 | –
20.45 K | 16.55 | –
22.62 K | 19.26 | –
25.08 K | 22.19 | –
27.79 K | 25.34 | –
30 K | 27.82 | –
30.74 K | 28.64 | –
33.98 K | 32.05 | –
37.55 K | 35.61 | –
40 K | 37.94 | –
41.59 K | 39.4 | –
46.13 K | 43.45 | –
50 K | 46.83 | –
51.2 K | 47.85 | –
56.87 K | 52.2 | –
56.9 K | 52.18 | –
60 K | 54.38 | –
62.55 K | 56.09 | –
62.62 K | 56.16 | –
68.7 K | 60.3 | –
70 K | 61.14 | –
72.85 K | 62.96 | –
75.63 K | 64.74 | –
80 K | 67.46 | –
83.16 K | 69.38 | –
84.2 K | 70.02 | –
90 K | 73.43 | –
91.53 K | 74.32 | –
92.55 K | 74.86 | –
100 K | 79.14 | –
100.6 K | 79.46 | –
101.73 K | 80.16 | –
109.97 K | 84.81 | –
119.46 K | 90.1 | –
120 K | 90.41 | –
129.35 K | 95.77 | –
139.36 K | 101.53 | –
140 K | 101.91 | –
149.34 K | 107.42 | –
159.36 K | 113.33 | –
160 K | 113.73 | –
169.39 K | 119.4 | –
179.42 K | 125.52 | –
180 K | 125.91 | –
189.44 K | 131.93 | –
199.45 K | 138.28 | –
200 K | 138.65 | –
209.47 K | 144.93 | –
219.38 K | 151.48 | –
220 K | 151.91 | –
229.4 K | 158.17 | –
239.49 K | 164.92 | –
240 K | 165.3 | –
249.56 K | 172.03 | –
259.56 K | 178.91 | –
260 K | 179.23 | –
269.56 K | 185.84 | –
279.57 K | 192.92 | –
280 K | 193.1 | –
289.32 K | 199.64 | –
296.08 K | 204.14 | –
298.15 K | 205.82 | –
299.29 K | 206.68 | –
300 K | 207.11 | –
305.5 K | 210.87 | –
308.47 K | 212.74 | –
309.21 K | 213.37 | –
315.7 K | 218.21 | –
316.59 K | 218.89 | –
320 K | 221.01 | –
324.75 K | 224.49 | –
325.3 K | 224.82 | –
332.95 K | 230.04 | –
335.34 K | 231.75 | –
340 K | 235.18 | 282.8
340.05 K | – | 282.82
341.17 K | 235.83 | –
345.34 K | 238.85 | –
349.26 K | – | 287
349.41 K | 242.52 | –
356.52 K | 247.86 | 290.4
359.51 K | – | 291.82
360 K | – | 291.97
363.97 K | – | 293.73
364.32 K | – | 293.78
367.03 K | – | 295.01
373.93 K | – | 298.26
380 K | – | 301.01
386.08 K | – | 303.75
398.35 K | – | 309.31
400 K | – | 310.04
410.74 K | – | 314.78
420 K | – | 318.92
423.26 K | – | 320.37
435.5 K | – | 325.69
440 K | – | 327.65
447.89 K | – | 331.01
460 K | – | 336.07
460.14 K | – | 336.12
472.54 K | – | 341.25
477.16 K | – | 343.14
480 K | – | 344.22
487.83 K | – | 347.32
490.73 K | – | 348.64
499.62 K | – | 352.16
500 K | – | 352.28
505.44 K | – | 354.68
509.99 K | – | 356.21
518.82 K | – | 359.99
519.26 K | – | 360.18
520 K | – | 360.47
